Assay type in all cases: cell-based
Experiment [1] deals with Eucalyptus nodal sections. Briefly: Acetosyringone in the co-cultivation medium, GUS staining of explants (Example 8). On the procedure: The inclusion of a phenolic compound, acetosyringone, in the co-cultivation medium was tested. Eucalyptus nodal sections were infected with Agrobacterium containing the double 35S-GUS construct, as described in Example 5, and then allowed to co-cultivate on MS+0.4% glucose medium containing acetosyringone, as described in Example 5. Following co-cultivation, explants were placed onto bud induction/selection medium for subsequent growth. Explants were stained for GUS activity as in Example 5 at 4-5 weeks post-infection.

For experiment [2], the system named is stem segments from in vitro micropropagated shoot cultures of E. grandis x nitens clone 910.59. Briefly: Adventitious bud induction from stem segments of different age at different BA concentrations (Example 1). The note with it: NAA 0.01 mg/l, after 5 weeks in culture. The text has this:
(§1) The following examples are offered by way of illustration and not by way of limitation. Examples 1 to 3 describe experiments involving optimization of the regeneration and transformation protocols for Eucalyptus transformation. All refer to adventitious bud induction from stem segments obtained from in vitro micropropagated shoot cultures of E. grandis x nitens clone 910.59 (Fletcher Challenge Forests, Ltd., New Zealand). The tissue culture conditions in all examples, unless otherwise noted, were: temperature 20° C., 16 hour photoperiod, and cool white fluorescent lighting. These tissue culture conditions are generally preferred. All cultures were placed in 20×100 mm Petri dishes, 10 stem segments per dish.
This experiment was designed to determine the best age of stem segments for adventitious bud induction. The basal medium used was full-strength Murashige and Skoog (MS) medium (Sigma M5519) and sucrose 30 g/l. The age of stem segments (apical, 1st, 2nd, 3rd and 4th nodes) were tested in combination with the concentrations of Benzylaminopurine (BA-1, 2 and 3 mg/l). All media contained Naphthalene acetic acid (NAA) at 0.01 mg/l.
In vitro shoots of 3-4 cm were cut into single node segments. The leaves were removed prior to culture. Approximately twenty explants were cultured for each treatment. Cultures were transferred to fresh media every 3 weeks. Adventitious bud development assessments were done after 5 weeks in culture. The percentages of explants forming adventitious shoots for each treatment are listed below.

The test system is the same in experiment [3]. Briefly: Kanamycin inhibition of adventitious bud formation on stem segments (Example 2). To be noted: after 5 weeks in culture.
From the text: as §1
This experiment was designed to determine the optimal concentration of kanamycin to be used for selection of transformed bud tissues. Explants were cultured as described at the end of Example 1, in combination with kanamycin levels of 0, 5, 10, 25, 50 or 100 mg/l. In vitro shoots of 3-4 cm in size were cut into single node segments, and the appropriate segments used. All leaves were removed prior to culture. Approximately thirty explants were used for each treatment. Cultures were transferred to fresh medium after 3 weeks in culture, and the percentage of bud inhibition determined after 5 weeks in culture.

Turning to `COc1cc(C(C)=O)cc(OC)c1O` [Acetosyringone, acetosyringone], the “% of Total GUS-Positive Explants in Buds” value in experiment [1] (5 μM acetosyringone in MS+0.4% glucose co-cultivation medium, GUS staining 4-5 weeks post-infection) came out at 8%. For the same molecule, in experiment [1] (5 μM acetosyringone in the co-cultivation medium), the “effect on transformation efficiency” value is “enhances transformation efficiency”.

Turning to `c1ccc(CNc2ncnc3[nH]cnc23)cc1` [BA, Benzylaminopurine], the “percentages of explants forming adventitious shoots” value (shortened to “percentages”) in experiment [2] (Apical Shoot Tips, BA 1 mg/l) is recorded as 25% (5/20); in experiment [2] (Apical Shoot Tips, BA 2 mg/l) it was 5% (1/20); in experiment [2] (Apical Shoot Tips, BA 3 mg/l), 33% (7/20); in experiment [2] (First Node, BA 1 mg/l) it was 57% (12/21); in experiment [2] (First Node, BA 2 mg/l), 35% (7/20); in experiment [2] (First Node, BA 3 mg/l) it was 20% (4/20). Besides, the “percentages” value in experiment [2] (Fourth Node, BA 1 mg/l) is given as 45% (9/20); in experiment [2] (Fourth Node, BA 2 mg/l), 38% (8/21); in experiment [2] (Fourth Node, BA 3 mg/l), 10% (2/20); in experiment [2] (Second Node, BA 1 mg/l), 76% (16/21); in experiment [2] (Second Node, BA 2 mg/l), 12% (6/20); in experiment [2] (Second Node, BA 3 mg/l), 20% (4/20). In addition, the “percentages” value in experiment [2] (Third Node, BA 1 mg/l) is recorded as 75% (15/20); in experiment [2] (Third Node, BA 2 mg/l), 15% (3/20); in experiment [2] (Third Node, BA 3 mg/l), 15% (3/20).

By inhibition is commonly meant the relative decrease from the control value, in per cent. As to `NC[C@H]1O[C@H](O[C@H]2[C@H](O)[C@@H](O[C@H]3O[C@H](CO)[C@@H](O)[C@H](N)[C@H]3O)[C@H](N)C[C@@H]2N)[C@H](O)[C@@H](O)[C@@H]1O` [Kanamycin, kanamycin], the inhibition at 5 µg/mL in experiment [3] (840 h, kanamycin 5 mg/l, read-out: % Bud Inhibition Relative To Control) turned out to be 20%. In addition, the inhibition at 10 µg/mL in experiment [3] (840 h, kanamycin 10 mg/l, read-out: % Bud Inhibition Relative To Control) turned out to be 41%. Besides, the inhibition at 25 µg/mL in experiment [3] (840 h, kanamycin 25 mg/l, read-out: % Bud Inhibition Relative To Control) is 59%. Moreover, the inhibition at 50 µg/mL in experiment [3] (840 h, kanamycin 50 mg/l, read-out: % Bud Inhibition Relative To Control) is 81%. Besides, the inhibition at 100 µg/mL in experiment [3] (840 h, kanamycin 100 mg/l, read-out: % Bud Inhibition Relative To Control) was 96%. The “% of Stem Segments Forming Adventitious Buds” value in experiment [3] (kanamycin 5 mg/l) was 64% (18/28); in experiment [3] (kanamycin 10 mg/l), 47% (14/30); in experiment [3] (kanamycin 25 mg/l), 33% (10/30); in experiment [3] (kanamycin 50 mg/l) it was 15% (14/31); in experiment [3] (kanamycin 100 mg/l), 3% (1/30).

The values are drawn from patent publication US20020016981A1, “Methods for producing genetically modified plants, plant materials and plant products produced thereby” (priority 1998, published 2002).
